# Data as given in patent US6677157B1, “Method of diagnosis of prostate cancer” (Uropath Pty Ltd., A.C.N., priority 1998, dated 2004).
# Tested on: mixed lymphocyte reaction
# Assay: Effect of keratan sulphate on a mixed lymphocyte reaction
# Type: cell-based
# Details: 20 μg/ml
# Description: The function of keratan sulphate in prostate tissue is unknown. It is known, however, that GAG compounds are important in the prevention of autoimmune bonne diseases (forms of arthritis). In order to determine whether keratan sulphate may have an immune regulatory effect it was assessed by intorducing it into a mixed lymphocyte reaction. […] At markedly diluted lymphocyte ratios of >270:1 no effect was evident (see FIG. 2).
substance,measurement,setting,value
keratan sulphate,reduction of mixed lymphocyte reaction,"lymphocyte ratios of 10, 30 and 90:1",50%
same,effect on mixed lymphocyte reaction,markedly diluted lymphocyte ratios of >270:1,no effect
